SMILES strings stand for the structures.

Here are results for one molecule from patent publication US20030152523A1, “Pharmaceutical composition for pulmonary delivery” (priority 2000, published 2003).

A short description of series [1]: In-vitro deposition of BDP from dry powder formulations aerosolised via Rotahaler into a twin stage impinger (TSI). It counts as physicochemical. The conditions noted are these: TSI at 60 L/min, drug in lower stage of TSI. From the text: It was the aim of the current study to attempt to reduce the hydrophobic interaction that exists between BDP particles. Such interaction induces aggregate formation and potentially limits the fine particle dose available for pulmonary delivery. The objectives were to adsorb hydrophilic polymer to individual drug particles and to prepare a model dry powder formulation containing modified drug and lactose. A suspension of 1% w/v BDP in water containing either 0.05% or 0.1% PVA ((MWt 9-10 kDA) was spray dried to produce particles (volume mean diameter (VMD) 4.2 μm as determined by an Aerosizer time of flight particle sizing apparatus obtained from Amherst Process Instruments, Hadley, Mass., USA) suitable for intended delivery to the lung. The micronised drug (VMD […]) or spray dried drug was blended with lactose in a ratio 1:67.5 parts by weight and the resultant formulations filled into gelatin capsules for arosolisation via a Rotahaler device to a twin stage impinger (TSI) operated at 60 L min^−1. The Fine Particle Dose (FPD) (as determined from by the amount of drug reaching the lower stage of the TSI) was increased from 20.2 μg when micronised drug was employed to 46.7 μg when the lower PVA concentration was employed. […] The concentration of BDP was determined from calibration curves constructed using the standard solutions of BDP. […]

A short description of series [2]: Particle size analysis by laser diffraction (Malvern 2600). It counts as physicochemical. The conditions noted are these: BDP dispersed in 1% (w/v) span 85 in cyclohexane. How it is done: 3 Particle Size Analysis:
The particle size of both micronised BDP and spray dried BDP was determined in a liquid medium by laser diffraction, according to an independent model, using a Malvern 2600 laser diffraction sizer (Malvern Instruments, Malvern, Worcs, UK). BDP was measured using a 63 mm lens, after dispersion in a solution of 1% (w/v) span 85 in cyclohexane, saturated with the drug. Each sample was measured in triplicate.

As to `CCC(=O)OCC(=O)[C@@]1(OC(=O)CC)[C@@H](C)C[C@H]2[C@@H]3CCC4=CC(=O)C=C[C@]4(C)[C@@]3(Cl)[C@@H](O)C[C@@]21C` [micronised BDP, beclomethasone dipropionate], the “Fine particle dose (FPD) of BDP” value in series [1] turned out to be 20.2 µg. In series [2], the “Volume mean diameter VMD(GSD)” value is 5.18 (1.00) μm.
